Source: patent US8263754B2, “Amphiphiles for protein solubilization and stabilization” (Wisconsin Alumni Research Foundation, priority 2008, dated 2012)

Test: Critical micelle concentration (CMC) by dye solubilization (Orange OT or DPH)
Assay type: physicochemical
Settings: determined by DPH (diphenylhexatriene) or Orange OT
From the text: Aqueous solubilization of Orange OT was used to determine critical micelle concentrations (CMC). […] Facile self-association of these amphiphiles under these conditions may be hindered by the hydrophilicity and/or steric bulk of the triglucoside and dimaltoside headgroups.
The Critical Micelle Concentrations (CMCs) of compounds of the invention can be determined by standard techniques known to those of skill in the art. For example, CMCs of the carbohydrate-based amphiphiles described herein can be determined by monitoring uptake of a dye (e.g., Orange OT or 1,6-diphenylhexatriene) with increasing detergent concentration, monitored by UV-visible or fluorescence spectroscopy.
For `O=C(CC1(C2CCCCC2)CCCCCC1)NC(CO[C@@H]1O[C@H](CO)[C@@H](O)[C@H](O)[C@H]1O)CO[C@@H]1O[C@H](CO)[C@@H](O)[C@H](O)[C@H]1O` [TPA 53], the “CMC” value was 13.8 mM and the “CMC (%)” value was 0.88%. With `CCCCC(CCCC)(CC(=O)NC(COC1OC(CO)C(O)C(O)C1O)COC1OC(CO)C(O)C(O)C1O)C1CCCC1` (stereo not shown) [TPA 57] the “CMC” value was 2.25 mM and the “CMC (%)” value was 0.15%. With `CC(CC(=O)NC(CO[C@@H]1O[C@H](CO)[C@@H](O)[C@H](O)[C@H]1O)CO[C@@H]1O[C@H](CO)[C@@H](O)[C@H](O)[C@H]1O)(C1CCCCC1)C1CCCCC1` [TPA 47] the “CMC” value was 4.7 mM and the “CMC (%)” value was 0.3%. For `O=C(NCCO[C@H]1OC(CO)[C@H](O)C(O)[C@H]1O)C12CC3CC(CC(C3)C1)C2` (stereo partly shown) [TPA 41], the “CMC” value was 180 mM and the “CMC (%)” value was 6.9%. With `CCCCCC(CC(=O)NC(CO[C@@H]1O[C@H](CO)[C@@H](O)[C@H](O)[C@H]1O)CO[C@@H]1O[C@H](CO)[C@@H](O)[C@H](O)[C@H]1O)(C1CCCCC1)C1CCCCC1` [TPA 73] the “CMC” value was 0.21 mM and the “CMC (%)” value was 0.014%. For `CCCCC(CCCC)(CC(=O)NC(COC1OC(CO)C(OC2OC(CO)C(O)C(O)C2O)C(O)C1O)COC1OC(CO)C(OC2OC(CO)C(O)C(O)C2O)C(O)C1O)c1ccc(-c2ccccc2)cc1` (stereo not shown) [TPA15], the “CMC” value was 1.7 mM and the “CMC (%)” value was 0.18%. With `CCCCCC(CCCCC)(CC(=O)NC(CO[C@@H]1O[C@H](CO)[C@@H](O)[C@H](O)[C@H]1O)CO[C@@H]1O[C@H](CO)[C@@H](O)[C@H](O)[C@H]1O)c1ccccc1` [TPA 35] the “CMC” value was 1.2 mM and the “CMC (%)” value was 0.083%. In the case of `CCCCC(CCCC)(CC(=O)NC(COC1OC(CO)C(O)C(O)C1O)COC1OC(CO)C(O)C(O)C1O)c1ccc(-c2ccccc2)cc1` (stereo not shown) [TPA 34], the “CMC” value is reported as 0.14 mM and the “CMC (%)” value is reported as 0.01%. With `O=C(NCCOC1OC(CO)C(OC2OC(CO)C(O)C(O)C2O)C(O)C1O)C(c1ccccc1)c1ccccc1` (stereo not shown) [DPA 68] the “CMC” value was 85.3 mM and the “CMC (%)” value was 4.95%. For `CCCCCCCCC(=O)NC(CO[C@@H]1O[C@H](CO)[C@@H](O)[C@H](O)[C@H]1O)CO[C@@H]1O[C@H](CO)[C@@H](O)[C@H](O)[C@H]1O` [C8-MPA2], the “CMC” value was 77 mM and the “CMC (%)” value was 4.3%. With `CC(C)(C)CC(C)(C)c1ccc(OCC(=O)NCCC[N+](C)(C)[O-])cc1` [Triton-N-oxide] the “CMC” value was 1.1 mM and the “CMC (%)” value was 0.04%. For `CCCCC(CCCC)(CC(=O)NC(CO[C@@H]1O[C@H](CO)[C@@H](O)[C@H](O)[C@H]1O)CO[C@@H]1O[C@H](CO)[C@@H](O)[C@H](O)[C@H]1O)CC(C)C` [TPA25], the “CMC” value was 4.1 mM and the “CMC (%)” value was 0.26%. In the case of `CCCCC(CCCC)(CC(=O)NC(CO[C@@H]1O[C@H](CO)[C@@H](O)[C@H](O)[C@H]1O)(CO[C@@H]1O[C@H](CO)[C@@H](O)[C@H](O)[C@H]1O)CO[C@@H]1O[C@H](CO)[C@@H](O)[C@H](O)[C@H]1O)c1ccc(-c2ccccc2)cc1` [TPA13], the “CMC” value is reported as 3.7 mM and the “CMC (%)” value is reported as 0.34%. In the case of `O=C(CC1(C2CCCCC2)CCCCCCC1)NC(CO[C@@H]1O[C@H](CO)[C@@H](O)[C@H](O)[C@H]1O)CO[C@@H]1O[C@H](CO)[C@@H](O)[C@H](O)[C@H]1O` [TPA 54], the “CMC” value is reported as 4.5 mM and the “CMC (%)” value is reported as 0.29%. For `CCCCC(CCCC)(CC(=O)NC(CO[C@@H]1O[C@H](CO)[C@@H](O[C@H]2O[C@H](CO)[C@@H](O)[C@H](O)[C@H]2O)[C@H](O)[C@H]1O)CO[C@@H]1O[C@H](CO)[C@@H](O[C@H]2O[C@H](CO)[C@@H](O)[C@H](O)[C@H]2O)[C@H](O)[C@H]1O)C1CCCCC1` [TPA24], the “CMC” value was 1.9 mM and the “CMC (%)” value was 0.19%. For `CCCCC(CC(=O)NC(CO[C@@H]1O[C@H](CO)[C@@H](O)[C@H](O)[C@H]1O)CO[C@@H]1O[C@H](CO)[C@@H](O)[C@H](O)[C@H]1O)(C1CCCCC1)C1CCCCC1` [TPA 49], the “CMC” value was 0.64 mM and the “CMC (%)” value was 0.04%. In the case of `CCCCCCCCCCCCCCC(=O)NC(CO[C@@H]1O[C@H](CO)[C@@H](O)[C@H](O)[C@H]1O)CO[C@@H]1O[C@H](CO)[C@@H](O)[C@H](O)[C@H]1O` [C14-MPA2], the “CMC” value is reported as 0.17 mM and the “CMC (%)” value is reported as 0.011%.
